# Assay results taken from US20240239861A1, “GLUCAGON-RECEPTOR SELECTIVE POLYPEPTIDES AND METHODS OF USE THEREOF” (i2O Therapeutics, Inc., priority 2016, published 2024).
# Where a SMILES comes first, the peptide text is derived from it. [ ]: non-standard residue; d: D form. Aib = CC(C)(N)C(=O)O
# What was measured:
# [1] = target: human GCGR (Homo sapiens, UniProt P47871); assay: Peptide-receptor mediated cAMP accumulation (LANCE Ultra cAMP) in CHO-K1 cells transfected with human GCGR; assay type: cell-based; conditions: Table 3
# [2] = target: human GLP-1R (Homo sapiens, UniProt P43220); assay: Peptide-receptor mediated cAMP accumulation (LANCE Ultra cAMP) in CHO-K1 cells transfected with human GLP-1R; assay type: cell-based; conditions: hGLP1 pEC50 (cAMP mean (n = 3): 11 point curve starting at 1 nM, Table 3)
# Sequence of human GLP-1R (P43220 24-463): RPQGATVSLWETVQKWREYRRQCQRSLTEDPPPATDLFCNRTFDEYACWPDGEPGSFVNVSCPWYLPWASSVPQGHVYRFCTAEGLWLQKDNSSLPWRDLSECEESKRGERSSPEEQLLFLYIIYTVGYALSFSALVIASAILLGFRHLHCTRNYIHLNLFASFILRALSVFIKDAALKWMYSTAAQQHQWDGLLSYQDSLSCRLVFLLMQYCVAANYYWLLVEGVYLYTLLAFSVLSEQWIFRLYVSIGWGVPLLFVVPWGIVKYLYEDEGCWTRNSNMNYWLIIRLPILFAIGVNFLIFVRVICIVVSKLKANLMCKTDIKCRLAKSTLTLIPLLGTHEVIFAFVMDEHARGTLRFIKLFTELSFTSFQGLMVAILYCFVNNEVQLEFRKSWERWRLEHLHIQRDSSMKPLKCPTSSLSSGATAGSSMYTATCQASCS
# Sequence of human GCGR (P47871 26-477): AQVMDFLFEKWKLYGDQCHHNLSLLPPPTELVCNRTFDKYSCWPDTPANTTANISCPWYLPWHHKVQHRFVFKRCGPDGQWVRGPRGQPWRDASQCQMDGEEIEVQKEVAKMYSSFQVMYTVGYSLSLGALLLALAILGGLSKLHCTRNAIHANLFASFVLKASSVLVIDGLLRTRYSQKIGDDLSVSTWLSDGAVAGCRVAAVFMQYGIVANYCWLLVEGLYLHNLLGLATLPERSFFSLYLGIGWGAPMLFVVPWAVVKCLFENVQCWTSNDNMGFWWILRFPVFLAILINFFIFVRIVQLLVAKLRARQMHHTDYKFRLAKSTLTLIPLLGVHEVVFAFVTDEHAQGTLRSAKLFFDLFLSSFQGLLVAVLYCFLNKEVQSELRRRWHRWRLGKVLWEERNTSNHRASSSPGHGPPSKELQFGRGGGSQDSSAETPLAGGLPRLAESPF
Structure (SMILES),EC50 [1] [nM],EC50 [2] [nM]
CC(C)C[C@H](NC(=O)[C@H](Cc1c[nH]c2ccccc12)NC(=O)[C@H](CCCCN)NC(=O)[C@H](CO)NC(=O)[C@H](Cc1ccc(O)cc1)NC(=O)[C@H](CC(=O)O)NC(=O)[C@H](CO)NC(=O)[C@@H](NC(=O)[C@H](Cc1ccccc1)NC(=O)[C@@H](NC(=O)CNC(=O)[C@H](Cc1c[nH]cn1)NC(=O)[C@@H](NC(=O)[C@@H](N)Cc1ccc(O)cc1)[C@@H](C)O)[C@@H](C)O)[C@@H](C)O)C(=O)N[C@@H](CC(=O)O)C(=O)N[C@@H](CO)C(=O)N[C@@H](C)C(=O)N[C@@H](CCCNC(=N)N)C(=O)N[C@@H](C)C(=O)N[C@@H](CCC(N)=O)C(=O)N[C@@H](CCC(=O)O)C(=O)N[C@@H](Cc1ccccc1)C(=O)N[C@H](C(=O)N[C@@H](CCCCN)C(=O)N[C@@H](Cc1c[nH]c2ccccc12)C(=O)N[C@@H](CC(C)C)C(=O)N[C@@H](CCC(=O)O)C(=O)N[C@@H](CC(=O)O)C(=O)N[C@@H](CCC(=O)O)C(=O)N1CCC[C@H]1C(=O)N[C@@H](CO)C(=O)N[C@@H](CO)C(=O)NCC(=O)N[C@@H](C)C(=O)N1CCC[C@H]1C(=O)N1CCC[C@H]1C(=O)N1CCC[C@H]1C(=O)N[C@@H](CO)C(=O)O)C(C)C [Compound A39] (H-YTHGTFTSDYSKWLDSARAQEFVKWLEDEPSSGAPPPS-OH; N-terminus assumed),0.398,> 1
CC(C)C[C@H](NC(=O)[C@H](Cc1c[nH]c2ccccc12)NC(=O)[C@H](CCCCN)NC(=O)[C@H](CO)NC(=O)[C@H](Cc1c[nH]cn1)NC(=O)[C@H](CC(=O)O)NC(=O)[C@H](CO)NC(=O)[C@@H](NC(=O)[C@H](Cc1ccccc1)NC(=O)[C@@H](NC(=O)CNC(=O)[C@H](Cc1c[nH]cn1)NC(=O)[C@@H](NC(=O)[C@@H](N)Cc1ccc(O)cc1)[C@@H](C)O)[C@@H](C)O)[C@@H](C)O)C(=O)N[C@@H](CC(=O)O)C(=O)NC(C)(C)C(=O)N[C@@H](CCCCN)C(=O)N[C@@H](CCCNC(=N)N)C(=O)N[C@@H](C)C(=O)N[C@@H](CCC(N)=O)C(=O)N[C@@H](CCC(=O)O)C(=O)N[C@@H](Cc1ccccc1)C(=O)N[C@H](C(=O)NC(C)(C)C(=O)N[C@@H](Cc1c[nH]c2ccccc12)C(=O)N[C@@H](CC(C)C)C(=O)N[C@@H](CCC(=O)O)C(=O)N[C@@H](CC(=O)O)C(=O)N[C@@H](CCC(=O)O)C(=O)N1CCC[C@H]1C(=O)N[C@@H](CO)C(=O)N[C@@H](CO)C(=O)NCC(=O)N[C@@H](C)C(=O)N1CCC[C@H]1C(=O)N1CCC[C@H]1C(=O)N1CCC[C@H]1C(=O)N[C@@H](CO)C(=O)O)C(C)C [Compound A34] (H-YTHGTFTSDHSKWLD[Aib]KRAQEFV[Aib]WLEDEPSSGAPPPS-OH; N-terminus assumed),0.0501,> 1
CC(C)C[C@H](NC(=O)[C@H](Cc1ccc(O)cc1)NC(=O)[C@H](CCCCN)NC(=O)[C@H](CO)NC(=O)[C@H](Cc1ccc(O)cc1)NC(=O)[C@H](CC(=O)O)NC(=O)[C@H](CO)NC(=O)[C@@H](NC(=O)[C@H](Cc1ccccc1)NC(=O)[C@@H](NC(=O)CNC(=O)[C@H](Cc1c[nH]cn1)NC(=O)[C@H](CO)NC(=O)[C@@H](N)Cc1ccc(O)cc1)[C@@H](C)O)[C@@H](C)O)C(=O)N[C@@H](CC(=O)O)C(=O)NC(C)(C)C(=O)N[C@@H](CCCCN)C(=O)N[C@@H](CCCNC(=N)N)C(=O)N[C@@H](C)C(=O)N[C@@H](CCC(N)=O)C(=O)N[C@@H](CCC(=O)O)C(=O)N[C@@H](Cc1ccccc1)C(=O)N[C@H](C(=O)NC(C)(C)C(=O)N[C@@H](Cc1c[nH]c2ccccc12)C(=O)N[C@@H](CC(C)C)C(=O)N[C@@H](CCC(=O)O)C(=O)N[C@@H](CC(=O)O)C(=O)N[C@@H](CCC(=O)O)C(=O)N[C@@H](CCCCN)C(=O)N[C@@H](CCCNC(=N)N)C(=O)N[C@@H](CC(N)=O)C(=O)N[C@@H](CCCCN)C(=O)N1CCC[C@H]1C(=O)N1CCC[C@H]1C(=O)N1CCC[C@H]1C(=O)N[C@@H](CO)C(=O)O)C(C)C [Compound A50] (H-YSHGTFTSDYSKYLD[Aib]KRAQEFV[Aib]WLEDEKRNKPPPS-OH; N-terminus assumed),0.00316,> 1
CC(C)C[C@H](NC(=O)[C@H](Cc1ccc(O)cc1)NC(=O)[C@H](CCCCN)NC(=O)[C@H](CO)NC(=O)[C@H](Cc1ccc(O)cc1)NC(=O)[C@H](CC(=O)O)NC(=O)[C@H](CO)NC(=O)[C@@H](NC(=O)[C@H](Cc1ccccc1)NC(=O)[C@@H](NC(=O)CNC(=O)[C@H](Cc1c[nH]cn1)NC(=O)[C@H](CO)NC(=O)[C@@H](N)Cc1ccc(O)cc1)[C@@H](C)O)[C@@H](C)O)C(=O)N[C@@H](CC(=O)O)C(=O)N[C@@H](CO)C(=O)N[C@@H](C)C(=O)N[C@@H](CCCNC(=N)N)C(=O)N[C@@H](C)C(=O)N[C@@H](CCC(N)=O)C(=O)N[C@@H](CCC(=O)O)C(=O)N[C@@H](Cc1ccccc1)C(=O)N[C@H](C(=O)N[C@@H](CCCCN)C(=O)N[C@@H](Cc1c[nH]c2ccccc12)C(=O)N[C@@H](CC(C)C)C(=O)N[C@@H](CCC(=O)O)C(=O)N[C@@H](CC(=O)O)C(=O)N[C@@H](CCC(=O)O)C(=O)N1CCC[C@H]1C(=O)N[C@@H](CCCCN)C(=O)N[C@@H](CO)C(=O)N[C@@H](CCCCN)C(=O)N[C@@H](CO)C(=O)N1CCC[C@H]1C(=O)N1CCC[C@H]1C(=O)N1CCC[C@H]1C(=O)N[C@@H](CO)C(=O)O)[C@@H](C)O [Compound A83] (H-YSHGTFTSDYSKYLDSARAQEFTKWLEDEPKSKSPPPS-OH; N-terminus assumed),0.0631,> 1
CC(C)C[C@H](NC(=O)[C@H](CCCCN)NC(=O)C(C)(C)NC(=O)[C@H](CC(=O)O)NC(=O)[C@H](CC(C)C)NC(=O)[C@H](Cc1ccc(O)cc1)NC(=O)[C@H](CCCCN)NC(=O)[C@H](CO)NC(=O)[C@H](Cc1ccc(O)cc1)NC(=O)[C@H](CC(=O)O)NC(=O)[C@H](CO)NC(=O)[C@@H](NC(=O)[C@H](Cc1ccccc1)NC(=O)[C@@H](NC(=O)CNC(=O)[C@H](Cc1c[nH]cn1)NC(=O)[C@H](CO)NC(=O)[C@@H](N)Cc1ccc(O)cc1)[C@@H](C)O)[C@@H](C)O)C(=O)N[C@@H](C)C(=O)N[C@@H](CCC(N)=O)C(=O)N[C@@H](CCC(=O)O)C(=O)N[C@@H](Cc1ccccc1)C(=O)N[C@H](C(=O)NC(C)(C)C(=O)N[C@@H](Cc1c[nH]c2ccccc12)C(=O)N[C@@H](CC(C)C)C(=O)N[C@@H](CCC(=O)O)C(=O)N[C@@H](CC(=O)O)C(=O)N[C@@H](CCC(=O)O)C(=O)N1CCC[C@H]1C(=O)N[C@@H](CO)C(=O)N[C@@H](CO)C(=O)NCC(=O)N[C@@H](C)C(=O)N1CCC[C@H]1C(=O)N1CCC[C@H]1C(=O)N1CCC[C@H]1C(=O)N[C@@H](CO)C(=O)O)C(C)C [Compound A78] (H-YSHGTFTSDYSKYLD[Aib]KLAQEFV[Aib]WLEDEPSSGAPPPS-OH; N-terminus assumed),0.0158,> 1
